Assays:
[1] = tested on: recurrent or metastatic squamous carcinoma of the uterine cervix; settings: single agent, cited from earlier work
[2] = tested on: HuPrime® cervical xenograft model CV1248 [P3]; experiment: Cervical cancer PDX mouse model, tisotumab vedotin with carboplatin (Example 3); assay type: in vivo, BALB/c nude mice; settings: for Tumor growth (FIGS. 3A and 3B): single agent, tisotumab vedotin 2 mg/kg, carboplatin 40 or 80 mg/kg, day 0, 7, 14 intravenous
Experimental: The in vivo anti-tumor efficacy of tisotumab vedotin in combination with carboplatin was evaluated in a patient-derived xenograft (PDX) mouse model in female BALB/c nude mice (Crown Bioscience [Taicang] Inc.). Xenografts were derived from tumor specimens from cancer patients. Tumor fragments were obtained from xenografts in serial passage in nude mice. Tumors were cut into fragments of 2-4 mm diameter and placed in phosphate-buffered saline (PBS) until subcutaneous implantation. A cervical cancer PDX model (HuPrime® cervical xenograft model CV1248 [P3]; Crown Bioscience Inc.) was used in this experiment. Tumor size was determined by caliper measurement at least two times a week and tumor volume was calculated as […]. When tumors reached an average volume of 150 mm^3, mice were randomized in 7 groups (10 mice per treatment group). The day of randomization was designated day 0. Mice were treated with the following by intravenous injections: 1) tisotumab vedotin alone at a dose level of 2 mg/kg, provided on day 0, day 7 and day 14; 2) carboplatin (Selleck Chemicals, cat. no. S121511) alone at a dose of 40 mg/kg or 80 mg/kg, provided on day 0, day 7 and day 14; 3) tisotumab vedotin at a dose level of 2 mg/kg, provided on day 0, day 7 and day 14 in combination with carboplatin at a dose of 40 mg/kg or 80 mg/kg, provided on day 0, day 7 and day 14; 4) IgG1 isotype control at a dose of 2 mg/kg provided on day 0, day 7 and day 14; or 5) IgG1-MMAE control at a dose of 2 mg/kg provided on day 0, day7 and day 14. […] Mice were housed in individually ventilated (IVC) cages, up to a maximum of five mice per cage and identified by ear tags. To determine whether there were statistically significant differences between tumor volumes in control and treatment groups, tumor volumes in the treatment groups were compared with those in the control group (e.g., treatment groups vs IgG1-MMAE control) and combination treatment groups were compared with groups treated with either of the compounds alone, using Mann-Whitney analysis at the last day that all groups were intact, i.e., day 20. For analysis of progression-free survival time (tumor size cut-off 750 mm^3), Mantel-Cox analysis was performed on Kaplan-Meier plots.

[3] = tested on: stage IVB, recurrent, or persistent squamous cell carcinoma of the cervix; settings: cited from earlier work
[4] = tested on: HuPrime® cervical xenograft model CV1248 [R4P5]; experiment: Cervical cancer PDX mouse model, tisotumab vedotin with cisplatin (Example 1); assay type: in vivo, BALB/c nude mice; settings: single agent; for Tumor growth (FIG. 1A-C): tisotumab vedotin 2 mg/kg and 4 mg/kg day 0, 7, cisplatin 4 mg/kg day 0, 7, 14, intravenous; for Survival (FIGS. 1D and 1E): tisotumab vedotin 2 mg/kg and 4 mg/kg, cisplatin 4 mg/kg, tumor size cut-off 1000 mm^3
Experimental: The in vivo anti-tumor efficacy of tisotumab vedotin in combination with cisplatin was evaluated in a patient-derived xenograft (PDX) mouse model in BALB/c nude mice (Crown Bioscience Inc.). Xenografts were derived from tumor specimens from cancer patients. Establishment and characterization of the PDX model was performed following primary implantation into nude mice. Tumor xenografts were passaged approximately three to five times until establishment of stable growth patterns. Tumor fragments were obtained from xenografts in serial passage in nude mice. Tumors were cut into fragments of 2-3 mm diameter and placed in phosphate-buffered saline (PBS) until subcutaneous implantation. A cervical cancer PDX model (HuPrime® cervical xenograft model CV1248 [R4P5]; Crown Bioscience Inc.) was used in this experiment. Tumor size was determined by caliper measurement at least two times a week and tumor volume was calculated as 0.5×length×width. When tumors reached the volume of 200 mm^3, mice were randomized in 11 groups (7-8 mice per treatment group). Mice were treated with the following by intravenous injections: 1) tisotumab vedotin alone at a dose level of 0.5 mg/kg, 1 mg/kg, 2 mg/kg or 4 mg/kg provided on day 0 and day 7 of treatment; 2) cisplatin alone at a dose of 4 mg/kg provided on day 0, day 7 and day 14 of treatment; 3) tisotumab vedotin at a dose level of 0.5 mg/kg, 1 mg/kg, 2 mg/kg or 4 mg/kg provided on day 0 and day 7 of treatment in combination with cisplatin at a dose of 4 mg/kg provided on day 0, day 7 and day 14 of treatment; 4) IgG1 isotype control at a dose of 4 mg/kg provided on day 0 and day 7 of treatment; or 5) IgG1-MMAE control at a dose of 4 mg/kg provided on day 0 and day 7 of treatment. […] Mice were housed in individually ventilated (IVC) cages, four or five mice per cage and identified by ear tags.
To determine whether there were statistically significant differences between tumor volumes in control and treatment groups, tumor volumes in the treatment groups were compared with those in the control group (e.g., treatment groups vs IgG1-MMAE control) using Mann-Whitney analysis at the last day that all groups were intact, i.e., day 38. For survival analysis (tumor volume cut-off was 1,000 mm^3). Mantel-Cox analysis was performed on Kaplan-Meier plots with a cut-off set at tumor volume >1,000 mm^3.

[5] = tested on: bladder xenograft model BXF1036; experiment: Bladder cancer PDX mouse model, tisotumab vedotin with cisplatin (Example 2); assay type: in vivo, Crl:NMRI-Foxn1^nu nude mice; settings: single agent; for Tumor growth (FIG. 2A-C): tisotumab vedotin 0.5 mg/kg day 1 intravenously, cisplatin 2 mg/kg day 1 and 8 subcutaneously; for Survival (FIG. 2D): tisotumab vedotin 0.5 mg/kg, cisplatin 2 mg/kg, tumor size cut-off 500 mm^3
Experimental: The in vivo anti-tumor efficacy of tisotumab vedotin in combination with cisplatin was evaluated in A PDX mouse model in female Crl:NMRI-Foxn1^nu (Envigo RMS SARL, France) nude mice (Charles River Discovery Research Services). Xenografts were derived from tumor specimens from cancer patients. Establishment and characterization of the PDX model was performed following primary implantation into nude mice. Tumor xenografts were passaged approximately three to five times until establishment of stable growth patterns. Tumor fragments were obtained from xenografts in serial passage in nude mice. Tumors were cut into fragments of 3-4 mm diameter and placed in phosphate-buffered saline (PBS) until subcutaneous implantation. A bladder cancer PDX model (bladder xenograft model BXF1036; Charles River Discovery Research Services) was used in this experiment. Tumor size was determined by caliper measurement at least two times a week and tumor volume was calculated as 0.52×length×width. When tumors reached the volume of 50-250 mm^3, mice were randomized in 5 groups (10 mice per treatment group). Mice were treated with the following: 1) tisotumab vedotin alone at a dose level of 0.5 mg/kg provided on day 1 of treatment; 2) cisplatin alone at a dose of 2 mg/kg provided on day 1 and day 8 of treatment; 3) tisotumab vedotin at a dose level of 0.5 mg/kg provided on day 1 of treatment in combination with cisplatin at a dose of 2 mg/kg provided on day 1 and day 8 of treatment; 4) IgG1 isotype control at a dose of 0.5 mg/kg provided on day 1 of treatment; or 5) IgG1-MMAE control at a dose of 0.5 mg/kg provided on day 1 of treatment. IgG1 isotype control, IgG1-MMAE control and tisotumab vedotin were each in PBS and injected intravenously. Cisplatin was in 0.9% NaCl and injected subcutaneously. […] Mice were housed in individually ventilated (IVC) cages, with a maximum of five mice per cage, and identified by ear tags.
To determine whether there were statistically significant differences between tumor volumes in control and treatment groups, tumor volumes in the treatment groups were compared with those in the control groups (e.g., IgG1-MMAE control, tisotumab vedotin alone or cisplatin alone) using Mann-Whitney analysis at the last day that all groups were intact, i.e., day 25. Statistical analysis of the difference between groups treated with tisotumab vedotin in combination with cisplatin and groups treated with either tisotumab vedotin alone or cisplatin alone was performed on day 32.
Tumor progression was plotted in a Kaplan-Meier plot, with a cut-off set at a tumor volume >500 mm^3. […]

[6] = tested on: relapsed, recurrent, and/or metastatic cervical cancer; settings: cited from earlier work
[7] = tested on: PD-L1-positive recurrent or metastatic cervical cancer (r/mCC); settings: 2 L+; 42% of patients previously treated with bevacizumab; cited from earlier work

Compound: N.N.O=C([O-])C1(C(=O)[O-])CCC1.[Pt+2] [Carboplatin, carboplatin]
- overall response rate ([1]; 6/41): 15%
- major toxic effects: anemia [1]: 47%
- major toxic effects: leukopenia [1]: 38%
- major toxic effects: nausea and vomiting [1]: 48%
- major toxic effects: thrombocytopenia [1]: 22%
- Average tumor volume Mann-Whitney Day 20 P value ([2]; carboplatin 40 mg/kg vs IgG1-MMAE): 0.5787
- Average tumor volume Mann-Whitney Day 20 P value ([2]; carboplatin 80 mg/kg vs IgG1-MMAE): 0.1716
- Tumor growth (FIGS. 3A and 3B) [2]: did not inhibit tumor growth

Compound: N.N.[Cl][Pt][Cl] [Cisplatin]
- median PFS ([3]; P<0.001 between arms): 2.8 months
- Objective responses (OR) ([3]; P=0.002 between arms): 19%
- median survival ([3]; at the time of data cutoff, no difference): 8.8 months
- Objective responses: complete ([3]; in vivo): 6%
- Objective responses: partial ([3]; in vivo): 13%
- Tumor growth (FIG. 1A-C) [4]: inhibited tumor growth
- Survival (FIGS. 1D and 1E) [4]: prolonged survival
- Tumor growth (FIG. 2A-C) [5]: inhibited tumor growth
- Survival (FIG. 2D) [5]: prolonged survival

Compound: Tisotumab vedotin
- AEs of grade 1-2 conjunctivitis ([6]; in vivo): frequently reported
- Clinically relevant perturbations in activated partial thromboplastin time (aPTT) or prothrombin time (PT) ([6]; in vivo): have not been observed
- Epistaxis, frequency among bleeding AEs ([6]; in vivo): most common reported AE
- Epistaxis, severity ([6]; in vivo): nearly all of the cases are grade 1
- Peripheral neuropathy, grade of the majority of the reported cases ([6]; in vivo): grade 1-2
- Peripheral neuropathy, share of subjects ([6]; subjects who received treatment with tisotumab vedotin): approximately 35%
- Tumor growth (FIG. 1A-C) [4]: efficiently inhibited tumor growth
- Survival (FIGS. 1D and 1E) [4]: prolonged survival
- Tumor growth (FIG. 2A-C) [5]: efficiently inhibited tumor growth
- Survival (FIG. 2D) [5]: prolonged survival
- Tumor growth (FIGS. 3A and 3B) [2]: efficiently inhibited tumor growth
- Average tumor volume Mann-Whitney Day 20 P value ([2]; tisotumab vedotin 2 mg/kg vs IgG1-MMAE): 0.0068

Compound: pembrolizumab
- objective response rate (ORR) [7]: 14%

— US20220387485A1, “METHODS OF TREATING CANCER WITH A COMBINATION OF A PLATINUM-BASED AGENT AND AN ANTI-TISSUE FACTOR ANTIBODY-DRUG CONJUGATE” (priority 2019, published 2022)
